Data from patent US20220409733A1, “COMPOSITIONS AND METHODS FOR TREATING CANCER” (priority 2019, published 2022).
Like-named read-outs stand apart in the source and are kept apart here.

Assays:
A2780 cells = experiment: CCK-8 assay of cDDP cytotoxicity in parental A2780 cells; assay type: cell-based; conditions: parental A2780 cell line, 1 h cDDP exposure
Method: (§1) FIG. 1B: CCK-8 assay of A2780, A2780-CP and A2780-CP cells pre-incubated for 24 h with APP antisense oligonucleotides (A2780ONS) during a 1 h exposure to increasing concentrations of cDDP.

A2780-CP cells = experiment: CCK-8 assay of cDDP cytotoxicity in Pt resistant A2780-CP cells; assay type: cell-based; conditions: 1 h cDDP exposure
Method: as §1

APP = APP (Homo sapiens, UniProt P05067); conditions: in vivo and in vitro; cited from earlier work
APP, sequence (P05067 18-770): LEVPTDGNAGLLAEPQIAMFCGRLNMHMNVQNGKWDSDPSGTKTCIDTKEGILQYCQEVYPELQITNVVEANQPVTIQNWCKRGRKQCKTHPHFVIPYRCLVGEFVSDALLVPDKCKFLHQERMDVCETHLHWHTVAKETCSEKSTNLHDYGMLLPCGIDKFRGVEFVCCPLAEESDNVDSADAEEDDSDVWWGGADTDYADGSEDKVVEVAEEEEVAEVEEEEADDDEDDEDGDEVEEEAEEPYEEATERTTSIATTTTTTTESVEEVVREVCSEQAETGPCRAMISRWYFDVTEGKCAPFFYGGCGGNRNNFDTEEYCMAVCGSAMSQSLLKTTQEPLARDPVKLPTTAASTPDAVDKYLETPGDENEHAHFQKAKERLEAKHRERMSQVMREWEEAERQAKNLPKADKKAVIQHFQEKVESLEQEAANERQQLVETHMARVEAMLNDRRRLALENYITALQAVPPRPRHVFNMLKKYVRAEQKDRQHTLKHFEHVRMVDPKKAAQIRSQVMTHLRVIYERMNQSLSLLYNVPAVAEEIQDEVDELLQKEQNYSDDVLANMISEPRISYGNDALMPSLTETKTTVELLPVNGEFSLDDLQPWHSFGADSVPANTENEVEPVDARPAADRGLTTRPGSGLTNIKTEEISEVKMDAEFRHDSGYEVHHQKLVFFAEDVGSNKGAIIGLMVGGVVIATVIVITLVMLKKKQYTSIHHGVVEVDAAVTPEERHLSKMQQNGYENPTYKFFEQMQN

Compound	IC50 (A2780 cells) [µM]	IC50 (A2780-CP cells; A2780-CP cells pre-treated overnight with 25 μM APP ONS, read-out: IC50 of cDDP following APP downregulation) [µM]	IC50 (A2780-CP cells; A2780-CP cells, no APP downregulation, read-out: IC50 of cDDP) [µM]	Binding to APP (APP)
[NH2][Pt]([NH2])([Cl])[Cl] [cDDP, Cisplatin]	10.2 ± 0.32	12.1 ± 0.3	63.2 ± 1.9	–
-cdkc pagtyvsehc tntslrvcss cpvgtftr- (SEQ ID NO:1) [DR6 peptide]	–	–	–	high affinity
